Test results as given in paper PMC8006202, “Influence of YES1 Kinase and Tyrosine Phosphorylation on the Activity of OCT1” (Frontiers in Pharmacology, 2021).

What was measured:
human OCT1 (hOCT1) = biological target: T1, human OCT1 (hOCT1) (Homo sapiens, UniProt O15245); experiment: Cellular uptake of [14C] TEA or [14C] metformin in HEK293 cells overexpressing hOCT1, with or without inhibitor; assay type: cell-based; conditions: HEK293-hOCT1, TKI 10 µM, Figure 2D
T1 construct: expressed in transfected cells
T1 sequence (O15245 1-554): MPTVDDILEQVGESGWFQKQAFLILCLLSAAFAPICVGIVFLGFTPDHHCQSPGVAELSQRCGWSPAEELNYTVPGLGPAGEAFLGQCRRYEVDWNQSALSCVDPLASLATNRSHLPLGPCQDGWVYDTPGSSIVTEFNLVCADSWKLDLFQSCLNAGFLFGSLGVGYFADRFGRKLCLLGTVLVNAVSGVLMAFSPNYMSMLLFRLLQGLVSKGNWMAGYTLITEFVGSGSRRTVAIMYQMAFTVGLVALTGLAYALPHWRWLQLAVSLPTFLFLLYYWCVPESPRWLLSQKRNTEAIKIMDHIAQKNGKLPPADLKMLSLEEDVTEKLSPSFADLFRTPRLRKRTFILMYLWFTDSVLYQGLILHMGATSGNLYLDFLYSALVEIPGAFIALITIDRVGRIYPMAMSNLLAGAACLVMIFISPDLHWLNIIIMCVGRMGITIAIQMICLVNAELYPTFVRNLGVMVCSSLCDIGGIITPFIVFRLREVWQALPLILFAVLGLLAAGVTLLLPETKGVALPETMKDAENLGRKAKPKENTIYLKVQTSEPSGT
Description: (§1) Human embryonic kidney (HEK293) cells were obtained from the American Type Culture Collection (ATCC, Manassas, VA). HEK293 cells stably transfected with mouse OCT1 (mOCT1) or human OCT1 (hOCT1) were cultured in Dulbecco’s Modified Eagle Media (DMEM) media supplemented with 10% fetal bovine serum (FBS) and grown at 37°C in a humidified incubator containing 5% CO2. Radiolabeled [^14C] TEA and [^14C] metformin were obtained from American Radiochemicals (St. Louis, MO). Cellular uptake assays were performed 48 h following transient transfection by Lipofectamine 3000 Transfection Reagent (Thermo Fisher Scientific, Waltham, MA). ON-TARGETplus Human YES1 siRNA was obtained from Dharmacon (Lafayette, CO). RNA extraction kits were obtained from Omega Bio-tek (Norcross, GA).
(§2) The results were normalized to uptake values in cells stably transfected with an empty vector treated with vehicle alone (Supplementary Figure S1). Prior to cellular accumulation experiments, cells were grown to 90% confluence on poly-lysine coated multi-well plates. For uptake studies, cells were rinsed with warm PBS and incubated in the presence of a vehicle or inhibitor, prepared in serum and phenol red-free DMEM media for 15 min. Subsequently, media was removed followed by the addition of radiolabeled TEA and metformin along with inhibitor, and cellular uptake was measured after a 15-min co-incubation period. Total radioactivity originating from TEA and metformin was determined using liquid scintillation counting after lysing the cells with 1 N NaOH, a neutralizing step with 2 M HCl. A Pierce protein assay (Thermo Fisher Scientific, Waltham, MA) was used to normalize radioactivity readings to account for variation in cell number between samples.

OCT1 (mouse and human) = experiment: Dose-response OCT1 uptake inhibition, summarised across mOCT1 and hOCT1 models and test substrates; assay type: cell-based; conditions: mouse and human, probe [14C] TEA (2 µM) or [14C] metformin (5 µM); range over mOCT1/hOCT1 models and test substrates
Description: as §1
as §2, with “Uptake assays were performed with radiolabeled TEA (2 µM) or metformin (5 µM) as described previously ([Sprowl et al., 2013]; [Pabla et al., 2015]) in the presence or absence of TKIs. The results” for “The results”

OCT1 = experiment: as above; assay type: cell-based, human and mouse
Description: as §1
as §2, with “Uptake assays were performed with radiolabeled TEA (2 µM) or metformin (5 µM) as described previously ([Sprowl et al., 2013]; [Pabla et al., 2015]) in the presence or absence of TKIs. The results” for “The results”

OCT2 (hOCT2) = biological target: T2, OCT2 (hOCT2) (Homo sapiens, UniProt O15244); conditions: cited from earlier work
T2 construct: expressed in transfected cells; host or cells: overexpressing cell model
T2 sequence (O15244 1-555): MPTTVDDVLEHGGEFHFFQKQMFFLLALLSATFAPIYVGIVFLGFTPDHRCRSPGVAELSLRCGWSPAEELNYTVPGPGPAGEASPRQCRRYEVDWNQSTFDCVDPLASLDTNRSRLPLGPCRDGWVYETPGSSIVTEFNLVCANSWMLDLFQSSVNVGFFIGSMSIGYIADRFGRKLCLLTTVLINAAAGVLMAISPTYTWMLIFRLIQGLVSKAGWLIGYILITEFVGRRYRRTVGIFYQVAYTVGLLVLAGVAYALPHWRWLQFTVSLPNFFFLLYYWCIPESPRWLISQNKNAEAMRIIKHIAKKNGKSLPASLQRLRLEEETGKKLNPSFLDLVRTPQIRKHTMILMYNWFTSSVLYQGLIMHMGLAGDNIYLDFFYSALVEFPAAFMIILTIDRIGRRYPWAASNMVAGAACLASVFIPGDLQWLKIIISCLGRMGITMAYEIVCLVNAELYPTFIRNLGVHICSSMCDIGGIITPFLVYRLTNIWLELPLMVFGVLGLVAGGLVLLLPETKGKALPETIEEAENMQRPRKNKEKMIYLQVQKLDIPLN

Cc1nc(Nc2ncc(C(=O)Nc3c(C)cccc3Cl)s2)cc(N2CCN(CCO)CC2)n1 [Dasatinib, dasatinib]
OCT1 function (TEA transport) in presence of TKI (human OCT1 (hOCT1)): inhibit OCT1 function
OCT1 inhibition (OCT1; Yes/No): Yes
OCT1 function in dose-response experiments (OCT1; species-independent, regardless of test substrate): potently inhibited
OCT2 inhibition (OCT2 (hOCT2); Yes/No, TKIs previously found to inhibit OCT2, ref Sprowl et al., 2016): Yes
OCT2 inhibition, co-incubation designs (OCT2 (hOCT2); ref Minematsu and Giacomini, 2011): only a weak inhibitor
OCT2 function, pre-incubation conditions (OCT2 (hOCT2); ref Sprowl et al., 2016): potently inhibits
